Values after ≈ are worked out from the molar mass of the structure shown. Where two headings read alike, the source gives them in different places.
Key:
Assay in all cases: MIC, broth micro-dilution technique (CLSI)
MRSA COL (NRS100) = assay type: cell-based, Staphylococcus aureus; conditions: Staphylococcus aureus, 22 h, read-out: MIC (μg/mL) (COL)
Outline: (§1)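 CLSI broth microdilution in cation-adjusted Mueller Hinton broth with 0.002% v/v Tween-80. Compounds were serially 2-fold diluted over 10 concentrations from 64 μg/ml, or from 4 μg/mL in a modified protocol; inoculum at final OD600 0.0005, incubated 35° C for 22 hours.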

[1] = system: Methicillin Resistant Staphylococcus aureus strain USA 300 (NRS384); assay type: cell-based; conditions: Staphylococcus aureus, 22 h, read-out: MIC (μg/mL) S. aureus
Outline: as §1

[2] = system: Escherichia coli MC4100 harboring the IMP4213; assay type: cell-based; conditions: Escherichia coli, 22 h, 35° C., 22 hours
Outline: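 Cation-adjusted MHB + 0.002% Tween-80; 10-point 2-fold series starting 64 μg/ml (modified protocol: 4 μg/mL). Final inoculum OD600 0.0005; 35° C, 22 h. MIC per CLSI M07-A8 broth microdilution.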

[3] = Table 1 protocol: serial 2-fold dilutions starting from 64 μg/ml, 35° C., 22 hours
[4] = read-out: MIC (μg/mL) E. coli, Table 1 protocol: serial 2-fold dilutions starting from 64 μg/ml
[5] = Table 2 modified protocol: serial 2-fold dilutions starting from 4 μg/mL, 35° C., 22 hours
[6] = read-out: MIC (μg/mL) E. coli, Table 2 modified protocol: serial 2-fold dilutions starting from 4 μg/mL

SMILES	MIC (MRSA COL (NRS100); [3])	MIC [1, 3]	MIC [2, 4]	MIC (MRSA COL (NRS100))	MIC [1]	MIC (MRSA COL (NRS100); [5])	MIC [1, 5]	MIC [2, 6]
CCCCCCCCCCCCS(=O)(=O)N[C@@H](CCCCN)C(=O)N(C)[C@@H]1C(=O)N[C@@H](C)C(=O)N[C@H](C(=O)N[C@@H](C)C(C)=O)Cc2ccc(O)c(c2)-c2cc1ccc2O [Compound 221]	0.13 µg/mL (≈ 0.154 µM)	0.5 µg/mL (≈ 0.593 µM)	45 µg/mL (≈ 53.4 µM)					
CCCCCCCCCCS(=O)(=O)N[C@@H](CCCCN)C(=O)N(C)[C@@H]1C(=O)N[C@@H](C)C(=O)N[C@H](C(=O)O)Cc2ccc(O)c(c2)-c2cc1ccc2O [Compound 222]			> 64 µg/mL	3 µg/mL (≈ 4.02 µM)	16 µg/mL (≈ 21.4 µM)			
CC(=O)[C@H](C)NC(=O)[C@@H]1Cc2ccc(O)c(c2)-c2cc(ccc2O)[C@H](N(C)C(=O)[C@H](CCCCN)NS(=O)(=O)c2ccc(-c3ccc(Cl)cc3)cc2)C(=O)N[C@@H](C)C(=O)N1 [Compound 223]	2 µg/mL (≈ 2.32 µM)	0.71 µg/mL (≈ 0.824 µM)	32 µg/mL (≈ 37.1 µM)					
CCCCCCCCCCS(=O)(=O)N[C@@H](CCCCN)C(=O)N(C)[C@@H]1C(=O)N[C@@H](C)C(=O)N[C@H](C(=O)N[C@@H](C)C(=O)N2CCC[C@H]2C(N)=O)Cc2ccc(O)c(c2)-c2cc1ccc2O [Compound 224]	0.13 µg/mL (≈ 0.142 µM)	16 µg/mL (≈ 17.5 µM)	64 µg/mL (≈ 70.1 µM)					
C[C@@H]1NC(=O)[C@@H](N(C)C(=O)[C@H](CCCCN)NS(=O)(=O)c2ccc(-c3ccc(Cl)cc3)cc2)c2ccc(O)c(c2)-c2cc(ccc2O)C[C@@H](C(=O)N[C@@H](C)C(=O)N2CCC[C@H]2C(N)=O)NC1=O [Compound 225]	6 µg/mL (≈ 6.25 µM)	23 µg/mL (≈ 24 µM)	> 64 µg/mL					
CC(=O)[C@H](C)NC(=O)[C@@H]1Cc2ccc(O)c(c2)-c2cc(cc(C#CCN)c2OCCN)[C@H](N(C)C(=O)[C@H](CCCCN)NC(=O)c2ccc(-c3ccc(Cl)cc3)cc2)C(=O)N[C@@H](C)C(=O)N1 [Compound 226]	0.25 µg/mL (≈ 0.271 µM)	4 µg/mL (≈ 4.34 µM)	4 µg/mL (≈ 4.34 µM)					
C[C@@H]1NC(=O)[C@@H](N(C)C(=O)[C@H](CCCCN)NC(=O)c2ccc(-c3ccc(Cl)cc3)cc2)c2ccc(O)c(c2)-c2cc(ccc2O)C[C@@H](C(=O)N[C@@H](C)C(=O)C(=O)Nc2ccn[nH]2)NC1=O [Compound 227]	2 µg/mL (≈ 2.17 µM)	12 µg/mL (≈ 13 µM)	> 64 µg/mL					
C[C@@H]1NC(=O)[C@@H](N(C)C(=O)[C@H](CCCCN)NC(=O)c2ccc(-c3ccc(Cl)cc3)cc2)c2ccc(O)c(c2)-c2cc(ccc2O)C[C@@H](C(=O)N[C@@H](C)C(=O)C(F)(F)C(N)=O)NC1=O [Compound 228]	2 µg/mL (≈ 2.21 µM)	5.3 µg/mL (≈ 5.86 µM)	15 µg/mL (≈ 16.6 µM)					
C[C@@H]1NC(=O)[C@@H](N(C)C(=O)[C@H](CCCCN)NC(=O)c2ccc(-c3ccc(Cl)cc3)cc2)c2ccc(O)c(c2)-c2cc(ccc2O)C[C@@H](C(=O)N[C@@H](C)C(=O)c2c[nH]cn2)NC1=O [Compound 229]	1 µg/mL (≈ 1.14 µM)	4 µg/mL (≈ 4.56 µM)	24 µg/mL (≈ 27.4 µM)					
C[C@@H]1NC(=O)[C@@H](N(C)C(=O)[C@H](CCCCN)NC(=O)c2ccc(-c3ccc(Cl)cc3)cc2)c2ccc(O)c(c2)-c2cc(ccc2O)C[C@@H](C(=O)N[C@@H](C)C(=O)c2c[nH]nn2)NC1=O [Compound 230]	8 µg/mL (≈ 9.11 µM)	64 µg/mL (≈ 72.9 µM)	> 64 µg/mL					
C[C@@H]1NC(=O)[C@@H](N(C)C(=O)[C@H](CCCCN)NC(=O)c2ccc(-c3ccc(Cl)cc3)cc2)c2ccc(O)c(c2)-c2cc(ccc2O)C[C@@H](C(=O)N[C@@H](C)C(=O)c2nnc[nH]2)NC1=O [Compound 231]	1 µg/mL (≈ 1.14 µM)	6 µg/mL (≈ 6.83 µM)	8 µg/mL (≈ 9.11 µM)					
C[C@@H]1NC(=O)[C@@H](N(C)C(=O)[C@H](CCCCN)NC(=O)c2ccc(-c3ccc(Cl)cc3)cc2)c2ccc(O)c(c2)-c2cc(ccc2O)C[C@@H](C(=O)N[C@@H](C)C(=O)c2ncc[nH]2)NC1=O [Compound 232]	1 µg/mL (≈ 1.14 µM)	4 µg/mL (≈ 4.56 µM)	8 µg/mL (≈ 9.12 µM)					
CCC(=O)[C@H](C)NC(=O)[C@@H]1Cc2ccc(O)c(c2)-c2cc(ccc2O)[C@H](N(C)C(=O)[C@H](CCCCN)NC(=O)c2ccc(-c3ccc(Cl)cc3)cc2)C(=O)N[C@@H](C)C(=O)N1 [Compound 233]	4 µg/mL (≈ 4.77 µM)	24 µg/mL (≈ 28.6 µM)	32 µg/mL (≈ 38.1 µM)					
CCN(CC(N)=O)C(=O)[C@H](C)NC(=O)[C@@H]1Cc2ccc(O)c(c2)-c2cc(ccc2O)[C@H](N(C)C(=O)[C@H](CCCCN)NC(=O)c2ccc(-c3ccc(Cl)cc3)cc2)C(=O)N[C@@H](C)C(=O)N1 [Compound 234]	8 µg/mL (≈ 8.78 µM)	64 µg/mL (≈ 70.2 µM)	64 µg/mL (≈ 70.2 µM)					
C[C@@H]1NC(=O)[C@@H](N(C)C(=O)[C@H](CCCCN)NC(=O)c2ccc(-c3ccc(Cl)cc3)cc2)c2ccc(O)c(c2)-c2cc(ccc2O)C[C@@H](C(=O)N[C@@H](C)C(=O)c2ccn[nH]2)NC1=O [Compound 235]	2 µg/mL (≈ 2.28 µM)	4 µg/mL (≈ 4.56 µM)	32 µg/mL (≈ 36.5 µM)					
C[C@@H]1NC(=O)[C@@H](N(C)C(=O)[C@H](CCCCN)NC(=O)c2ccc(-c3ccc(Cl)cc3)cc2)c2ccc(O)c(c2)-c2cc(ccc2O)C[C@@H](C(=O)NC/C=C/S(C)(=O)=O)NC1=O [Compound 236]			> 64 µg/mL	8 µg/mL (≈ 9.16 µM)	48 µg/mL (≈ 55 µM)			
Cc1nc(C(=O)[C@H](C)NC(=O)[C@@H]2Cc3ccc(O)c(c3)-c3cc(ccc3O)[C@H](N(C)C(=O)[C@H](CCCCN)NC(=O)c3ccc(-c4ccc(Cl)cc4)cc3)C(=O)N[C@@H](C)C(=O)N2)no1 [Compound 237]	4 µg/mL (≈ 4.48 µM)	12 µg/mL (≈ 13.4 µM)	8 µg/mL (≈ 8.95 µM)					
CNC(=O)C(=O)CNC(=O)[C@@H]1Cc2ccc(O)c(c2)-c2cc(ccc2O)[C@H](N(C)C(=O)[C@H](CCCCN)NC(=O)c2ccc(-c3ccc(Cl)cc3)cc2)C(=O)N[C@@H](C)C(=O)N1 [Compound 238]	8 µg/mL (≈ 9.36 µM)	32 µg/mL (≈ 37.5 µM)	64 µg/mL (≈ 74.9 µM)					
C[C@@H]1NC(=O)[C@@H](N(C)C(=O)[C@H](CCCCN)NC(=O)c2ccc(-c3ccc(Cl)cc3)cc2)c2ccc(O)c(c2)-c2cc(ccc2O)C[C@@H](C(=O)NCC(=O)C(=O)O)NC1=O [Compound 239]	4 µg/mL (≈ 4.75 µM)	> 4 µg/mL	> 4 µg/mL					
C[C@H](NC(=O)[C@@H]1Cc2ccc(O)c(c2)-c2cc(ccc2O)[C@H](N(C)C(=O)[C@H](CCCCN)NC(=O)c2ccc(-c3ccc(Cl)cc3)cc2)C(=O)N[C@@H](C)C(=O)N1)C(=O)CNC=O [Compound 240]	2 µg/mL (≈ 2.3 µM)	4 µg/mL (≈ 4.61 µM)	48 µg/mL (≈ 55.3 µM)					
C[C@H](NC(=O)[C@@H]1Cc2ccc(O)c(c2)-c2cc(ccc2O)[C@H](N(C)C(=O)[C@H](CCCCN)NC(=O)c2ccc(-c3ccc(Cl)cc3)cc2)C(=O)N[C@@H](C)C(=O)N1)C(=O)Cn1ccnn1 [Compound 241]	1.5 µg/mL (≈ 1.68 µM)	4 µg/mL (≈ 4.48 µM)	16 µg/mL (≈ 17.9 µM)					
C[C@@H]1NC(=O)[C@@H](N(C)C(=O)[C@H](CCCCN)NC(=O)c2ccc(-c3ccc(Cl)cc3)cc2)c2ccc(O)c(c2)-c2cc(ccc2O)C[C@@H](C(=O)N[C@@H](C)C(=O)C(=O)Nc2cn[nH]c2)NC1=O [Compound 242]						4 µg/mL (≈ 4.35 µM)	> 4 µg/mL	> 4 µg/mL
C[C@@H]1NC(=O)[C@@H](N(C)C(=O)[C@H](CCCCN)NC(=O)c2ccc(-c3ccc(Cl)cc3)cc2)c2ccc(O)c(c2)-c2cc(ccc2O)C[C@@H](C(=O)N[C@@H](C)C(=O)N(CCO)CC(N)=O)NC1=O [Compound 243]						> 4 µg/mL	> 4 µg/mL	> 4 µg/mL
C[C@@H]1NC(=O)[C@@H](N(C)C(=O)[C@H](CCCCN)NC(=O)c2ccc(-c3ccc(Cl)cc3)cc2)c2ccc(O)c(c2)-c2cc(ccc2O)C[C@@H](C(=O)NCC(=O)c2nnn[nH]2)NC1=O [Compound 244]						4 µg/mL (≈ 4.62 µM)	> 4 µg/mL	> 4 µg/mL
C[C@@H]1NC(=O)[C@@H](N(C)C(=O)[C@H](CCCCN)NC(=O)c2ccc(-c3ccc(Cl)cc3)cc2)c2ccc(O)c(c2)-c2cc(ccc2O)C[C@@H](C(=O)NCC(=O)c2ncc[nH]2)NC1=O [Compound 245]						2 µg/mL (≈ 2.32 µM)	4 µg/mL (≈ 4.63 µM)	> 4 µg/mL

— US10392422B2, “Macrocyclic broad spectrum antibiotics” (priority 2014, dated 2019)
